Data on 18 molecules can be found in patent US20230101273A1, “MESOIONIC INSECTICIDES” (FMC Corporation, priority 2020, published 2023).

Structures can show the parent of a compound that is named as a salt.

Data set [1] deals with green peach aphid (Myzus persicae (Sulzer)). Kind of data set: Test E: control of green peach aphid through contact and/or systemic means. It counts as in vivo. The settings on record: 144 h, sprayed at 50 ppm, 6 days, radish plant. The method, then:
(§1) Test compounds were formulated using a solution containing 10% acetone, 90% water and 300 ppm Activator 900 non-ionic surfactant (Loveland Products, Loveland, Colo., USA). The formulated compounds were applied in 1 mL of liquid through an atomizer nozzle positioned 1.27 cm (0.5 inches) above the top of each test unit. Test compounds were sprayed at the rates indicated, and each test was replicated three times.
For evaluating control of green peach aphid (Myzus persicae (Sulzer)) through contact and/or systemic means, the test unit consisted of a small open container with a 12-15-day-old radish plant inside. This was pre-infested by placing on a leaf of the test plant 30-40 aphids on a piece of leaf excised from a culture plant (cut-leaf method). The aphids moved onto the test plant as the leaf piece desiccated. After pre-infestation, the soil of the test unit was covered with a layer of sand.
Test compounds were formulated and sprayed at 50 ppm. After spraying of the formulated test compound, each test unit was allowed to dry for 1 hour and then a black, screened cap was placed on top. The test units were held for 6 days in a growth chamber at 19-21° C. and 50-70% relative humidity. Each test unit was then visually assessed for insect mortality.

The test system of data set [2] is potato leafhopper (Empoasca fabae (Harris)). Kind of data set: Test D: control of potato leafhopper through contact and/or systemic means. It is filed as in vivo. The conditions noted are these: 144 h, sprayed at 50 ppm, 6 days, adults on Soleil bean plant. As to the method: as §1
For evaluating control of potato leafhopper (Empoasca fabae (Harris)) through contact and/or systemic means, the test unit consisted of a small open container with a 5-6-day-old Soleil bean plant (primary leaves emerged) inside. White sand was added to the top of the soil, and one of the primary leaves was excised prior to application of the test compound.
Test compounds were formulated and sprayed at 50 ppm. After spraying of the formulated test compound, the test units were allowed to dry for 1 hour before they were post-infested with 5 potato leafhoppers (18-to-21-day-old adults). A black, screened cap was placed on the top of the test unit, and the test units were held for 6 days in a growth chamber at 20° C. and 70% relative humidity. Each test unit was then visually assessed for insect mortality.

Data set [3] relates to corn planthopper (Peregrinus maidis (Ashmead)). The data set is described as follows: Test C: control of corn planthopper through contact and/or systemic means. It is filed as in vivo. The conditions noted are these: 144 h, sprayed at 50 ppm, 6 days, nymphs on corn plant. The method, then:
as §1
For evaluating control of corn planthopper (Peregrinus maidis (Ashmead)) through contact and/or systemic means, the test unit consisted of a small open container with a 3-4-day-old corn (maize) plant inside. White sand was added to the top of the soil prior to application of the test compound.
Test compounds were formulated and sprayed at 50 ppm. After spraying of the formulated test compound, the test units were allowed to dry for 1 h before they were post-infested with ˜15-20 nymphs (18-to-21-day-old). A black, screened cap was placed on the top of each test unit, and the test units were held for 6 days in a growth chamber at 22-24° C. and 50-70% relative humidity. Each test unit was then visually assessed for insect mortality.

The test system of data set [4] is cotton melon aphid (Aphis gossypii (Glover)). The data set is described as follows: Test F: control of cotton melon aphid through contact and/or systemic means. The conditions noted are these: 144 h, sprayed at 50 ppm, 6 days, okra plant. It counts as in vivo. As to the method: as §1
[…] This was pre-infested with 30-40 insects on a piece of leaf according to the cut-leaf method, and the soil of the test unit was covered with a layer of sand.
Test compounds were formulated and sprayed at 50 ppm. After spraying, the test units were maintained in a growth chamber for 6 days at 19° C. and 70% relative humidity. Each test unit was then visually assessed for insect mortality.

A word on the mortality: it is the share of the test organisms that died. A high value points to fewer survivors. With `Cc1cccn2c(=O)c(-c3cc(F)cc(C#CC4CC4)c3)c([O-])[n+](Cc3cnc(Cl)s3)c12` [Compound 29], in data set [1], the mortality at 50 ppm was ≥ 80%.
Regarding `Cc1cccn2c(=O)c(-c3cc(C#CC(C)C)cc(C(F)(F)F)c3)c([O-])[n+](Cc3cnc(Cl)s3)c12` [Compound 26], the mortality at 50 ppm in data set [2] is ≥ 80%.
Regarding `CCC#Cc1cccc(-c2c([O-])[n+](Cc3cnc(Cl)s3)c3c(C)cccn3c2=O)c1` [Compound 2, 3-[3-(1-butyn-1-yl)phenyl]-1-[(2-chloro-5-thiazolyl)methyl]-2-hydroxy-9-methyl-4-oxo-4H-pyrido[1,2-a]pyrimidinium inner salt], the mortality at 50 ppm in data set [3], in data set [1] and in data set [4] was ≥ 80% throughout.
On to `Cc1cccn2c(=O)c(-c3cccc(C#CC4CC4)c3)c([O-])[n+](Cc3cnc(Cl)s3)c12` [Compound 37, 1-[(2-chloro-5-thiazolyl)methyl]-3-[3-(2-cyclopropylethynyl)phenyl]-2-hydroxy-9-methyl-4-oxo-4H-pyrido[1,2-a]pyrimidinium inner salt], for which the mortality at 50 ppm in data set [3], in data set [2], in data set [1] and in data set [4] was ≥ 80% each time.
Turning to `COc1cc(C#CC2CC2)cc(-c2c([O-])[n+](Cc3cnc(Cl)s3)c3c(C)cccn3c2=O)c1` [Compound 4, 1-[(2-chloro-5-thiazolyl)methyl]-3-[3-(2-cyclopropylethynyl)-5-methoxyphenyl]-2-hydroxy-9-methyl-4-oxo-4H-pyrido[1,2-a]pyrimidinium inner salt], the mortality at 50 ppm in data set [3], in data set [2], in data set [1] and in data set [4] was ≥ 80% in each case.
For the molecule `Cc1cccn2c(=O)c(-c3cc(Cl)cc(C#Cc4ccccc4)c3)c([O-])[n+](Cc3cnc(Cl)s3)c12` [Compound 47], the mortality at 50 ppm in data set [2] and in data set [4] was ≥ 80% each time.
As for `CCC#Cc1cc(Cl)cc(-c2c([O-])[n+](Cc3cnc(Cl)s3)c3c(C)cccn3c2=O)c1` [Compound 1, 3-[3-(1-butyn-1-yl)-5-chlorophenyl]-1-[(2-chloro-5-thiazolyl)methyl]-2-hydroxy-9-methyl-4-oxo-4H-pyrido[1,2-a]pyrimidinium inner salt], the mortality at 50 ppm in data set [3], in data set [1] and in data set [4] was ≥ 80% each time.
For the molecule `Cc1ccc(-c2c([O-])[n+](Cc3cnc(Cl)s3)c3c(C)cccn3c2=O)cc1C#CC(C)C` [Compound 86], the mortality at 50 ppm in data set [3], in data set [2], in data set [1] and in data set [4] was ≥ 80% throughout.
In the case of `CC#Cc1cccc(-c2c([O-])[n+](Cc3cnc(Cl)s3)c3c(C)cccn3c2=O)c1` [Compound 61], the mortality at 50 ppm in data set [3], in data set [2] and in data set [4] was ≥ 80% in each case.
By melting point is commonly meant the temperature of the solid-liquid transition. Regarding `CCOc1cc(C#CC(C)C)cc(-c2c([O-])[n+](Cc3cnc(Cl)s3)c3c(C)cccn3c2=O)c1` (as salt: salt) [Compound 54, 1-[(2-chloro-5-thiazolyl)methyl]-3-[3-ethoxy-5-(3-methyl-1-butyn-1-yl)phenyl]-2-hydroxy-9-methyl-4-oxo-4H-pyrido[1,2-a]pyrimidinium inner salt], the melting point is 90 to 97 °C.
Take `CCOc1cc(C#CC2CC2)cc(-c2c([O-])[n+](Cc3cnc(Cl)s3)c3c(C)cccn3c2=O)c1` [Compound 51, 1-[(2-chloro-5-thiazolyl)methyl]-3-[3-(2-cyclopropylethynyl)-5-ethoxyphenyl]-2-hydroxy-9-methyl-4-oxo-4H-pyrido[1,2-a]pyrimidinium inner salt]: the mortality at 50 ppm in data set [3], in data set [1] and in data set [4] was ≥ 80% in each case.
Turning to `Cc1cc(C#CC2CC2)cc(-c2c([O-])[n+](Cc3cnc(Cl)s3)c3c(C)cccn3c2=O)c1` [Compound 11, 1-[(2-chloro-5-thiazolyl)methyl]-3-[3-(2-cyclopropylethynyl)-5-methylphenyl]-2-hydroxy-9-methyl-4-oxo-4H-pyrido[1,2-a]pyrimidinium inner salt], the mortality at 50 ppm in data set [3], in data set [2], in data set [1] and in data set [4] was ≥ 80% throughout.
On to `Cc1cccn2c(=O)c(-c3cccc(C#CC(C)C)c3)c([O-])[n+](Cc3cnc(Cl)s3)c12` [Compound 44, 1-[(2-chloro-5-thiazolyl)methyl]-2-hydroxy-9-methyl-3-[3-(3-methyl-1-butyn-1-yl)phenyl]-4-oxo-4H-pyrido[1,2-a]pyrimidinium inner salt], for which the mortality at 50 ppm in data set [3], in data set [2], in data set [1] and in data set [4] was ≥ 80% throughout.
`Cc1cccn2c(=O)c(-c3cc(F)cc(C#CC(C)C)c3)c([O-])[n+](Cc3cnc(Cl)s3)c12` [Compound 21]: the mortality at 50 ppm in data set [2], in data set [1] and in data set [4] was ≥ 80% in each case.
Regarding `Cc1cccn2c(=O)c(-c3cc(C#CC4CC4)cc(C(C)C)c3)c([O-])[n+](Cc3cnc(Cl)s3)c12` [Compound 14], the mortality at 50 ppm in data set [1] and in data set [4] was ≥ 80% in each case.
Consider `Cc1cccn2c(=O)c(-c3cc(Cl)cc(C#CC4CC4)c3)c([O-])[n+](Cc3cnc(Cl)s3)c12` [Compound 35], for which the mortality at 50 ppm in data set [1] and in data set [4] was ≥ 80% throughout.
In the case of `COc1cc(C#CC(C)C)cc(-c2c([O-])[n+](Cc3cnc(Cl)s3)c3c(C)cccn3c2=O)c1` [Compound 18], the mortality at 50 ppm in data set [1] and in data set [4] was ≥ 80% in each case.
`Cc1cc(C#CC(C)C)cc(-c2c([O-])[n+](Cc3cnc(Cl)s3)c3c(C)cccn3c2=O)c1` [Compound 7, 1-[(2-chloro-5-thiazolyl)methyl]-2-hydroxy-9-methyl-3-[3-methyl-5-(3-methyl-1-butyn-1-yl)phenyl]-4-oxo-4H-pyrido[1,2-a]pyrimidinium inner salt]: the mortality at 50 ppm in data set [3], in data set [2], in data set [1] and in data set [4] was ≥ 80% in each case.
